The results in this text go back to ChEMBL document CHEMBL1149969, “Conformationally restricted inhibitors of the high affinity -glutamate transporter” (Bioorg Med Chem Lett, 1993).

Series [1] deals with Excitatory amino acid transporter 2 (Rattus norvegicus) (UniProt P31596). Briefly: Attenuation of the sodium-dependent uptake of [3H]D-aspartate into synaptosomes prepared from rat forebrain at 250 uM. The series is classed as subcellular. The note with it: Brain.
Series [2] has the same target. Briefly: Tested for the ability to attenuate the sodium-dependent uptake of [3H]D-aspartate (5 uM) into synaptosomes prepared from rat forebrain at 25 uM. Conditions: Brain. It is filed as subcellular.
The species entered for another series is Rattus norvegicus. Briefly: Tested for the competitive inhibitory activity against D-aspartate transport in rat synaptosomes. The series is classed as functional, Brain.
A short description of series [3]: The compound was tested for binding affinity towards Excitatory amino acid receptors of rat brain synaptosomes; IE means ineffective. The series is classed as subcellular.
Compound in series [4]: O=C(O)[C@@H]1CN[C@@H](C(=O)O)C1
In words: Tested for the competitive inhibitory activity against L-glutamate transport in rat synaptosomes. It is filed as subcellular. The note with it: Brain.

With `O=C(O)[C@@H]1CN[C@H](C(=O)O)C1` (stereo in doubt; form 2), the Control in series [1] worked out at 36%; in series [2], 82%.
Take `O=C(O)[C@@H]1CCN[C@H]1C(=O)O` (stereo in doubt; form 2): in series [1], the Control worked out at 107%.
In series [2], `N[C@@H](CCC(=O)O)C(=O)O` registered a Control of 40%.
`O=C(O)[C@@H]1CN[C@H]1C(=O)O` (stereo in doubt; form 2) had a Control in series [1] of 100%.
Turning to `O=C(O)[C@H]1NC[C@H]1C(=O)O` (stereo in doubt; form 1), the values for the Control in series [1] and in series [2] were 53% and 96%, respectively.
Consider `O=C(O)C[C@@H]1CN[C@H](C(=O)O)C1`, for which the Control in series [1] was 74%.
Still for that read-out and setting: with `CCOCC1[C@H](C(=O)O)CN[C@H]1C(=O)O` (stereo partly drawn) the figure was 55%; with `O=C(O)[C@@H]1CN[C@H]1C(=O)O` (stereo in doubt; form 1), 109%; with `O=C(O)[C@H]1NCC[C@H]1C(=O)O` (stereo in doubt; form 2), 108%.
For the molecule `CC(C)[C@H]1CN[C@H](C(=O)O)[C@H]1CC(=O)O` (single isomer, unassigned), the Control is 25% in series [1] and 83% in series [2].
One may read the Ki as the equilibrium dissociation constant of an inhibitor or competing ligand from its target. Low readings indicate tighter binding, high ones weaker binding. Regarding `O=C(O)[C@@H]1CN[C@@H](C(=O)O)C1` (stereo in doubt; form 1) [listing 1 of 2 here], the Ki in the series listed under Rattus norvegicus is 1.3 µM; in series [3] it was “Ineffective”.
In series [1], `C=C(C)[C@H]1CN[C@H](C(=O)O)[C@H]1CC(=O)O` displayed a Control of 39%.
`O=C(O)CC1[C@H](C(=O)O)CN[C@H]1C(=O)O` (stereo partly drawn) gave a Control in series [1] of 95%.
On to `O=C(O)C[C@H]1CCN[C@@H]1C(=O)O`, for which the Control in series [1] amounted to 74%.
On the same count and under the same terms, the value for `O=C(O)[C@@H]1CN[C@H](C(=O)O)C1` (stereo in doubt; form 1) was 105%.
Molecule `O=C(O)[C@@H]1CCN[C@H]1C(=O)O` (stereo in doubt; form 1) had a Control in series [1] of 81%.
Take `O=C(O)[C@@H]1CN[C@@H](C(=O)O)C1` (stereo in doubt; form 1) [listing 2 of 2 here]: the Control in series [1] turned out to be 0%; in series [2] it was 18%.
`O=C(O)[C@H]1NC[C@H]1C(=O)O` (stereo in doubt; form 2): the Control in series [1] came out at 98%.
As to `O=C(O)[C@@H]1CN[C@@H](C(=O)O)C1` (stereo in doubt; form 2), the Control in series [1] was 54%; in series [2], 88%.
For `O=C(O)[C@H]1NCC[C@H]1C(=O)O` (stereo in doubt; form 1), in that order: 38% and 94%.

B1: Excitatory amino acid transporter 2 (Rattus norvegicus), P31596 (protein)
chain: MASTEGANNMPKQVEVRMHDSHLSSEEPKHRNLGMRMCDKLGKNLLLSLTVFGVILGAVCGGLLRLAAPIHPDVVMLIAFPGDILMRMLKMLILPLIISSLITGLSGLDAKASGRLGTRAMVYYMSTTIIAAVLGVILVLAIHPGNPKLKKQLGPGKKNDEVSSLDAFLDLIRNLFPENLVQACFQQIQTVTKKVLVAPPSEEANTTKAVISLLNETMNEAPEETKIVIKKGLEFKDGMNVLGLIGFFIAFGIAMGKMGEQAKLMVEFFNILNEIVMKLVIMIMWYSPLGIACLICGKIIAIKDLEVVARQLGMYMITVIVGLIIHGGIFLPLIYFVVTRKNPFSFFAGIFQAWITALGTASSAGTLPVTFRCLEDNLGIDKRVTRFVLPVGATINMDGTALYEAVAAIFIAQMNGVILDGGQIVTVSLTATLASIGAASIPSAGLVTMLLILTAVGLPTEDISLLVAVDWLLDRMRTSVNVVGDSFGAGIVYHLSKSELDTIDSQHRMHEDIEMTKTQSVYDDTKNHRESNSNQCVYAAHNSVVIDECKVTLAANGKSADCSVEEEPWKREK
A word on the Km: it is the concentration of substrate that gives half-maximal velocity. With B1, the Km in series [4] came out at 3 µM.
